# Test results taken from patent publication US7326538B2, “Binding proteins as biosensors” (Becton Dickinson and Company, priority 2002, dated 2008).
# Experiments:
# [1] = SPR glucose detection on immobilized GGBP sensor surfaces (BIACORE); assay type: binding; conditions: for glucose detection by SPR using thiol-coupled mutants (FIG. 8): 0.1 mM and 1 mM glucose, thiol-coupled surfaces; for SPR Signal, Buffer: running buffer injection
# Procedure: Proteins were immobilized onto a carboxymethyldextran (CM5) sensor surface (BIACORE) by thiol coupling using standard thiol coupling chemistry with a flow rate of 5 μl/min in 10 mM HEPES pH 7.4, 150 mM NaCl, 0.05% BIACORE Surfactant P20 (BIAcore) (HBS-P) running buffer. The sensor surface was activated with a 2 minute pulse of […] (EDC/NHS) followed by a 4 min pulse of 80 mM 2-(2-pyridinyldithio) ethaneamine (PDEA), 0.1 M sodium borate pH 8.5, E149C GGBP (1.8 mg/ml) was injected at a 1:50 dilution in 10 mM sodium acetate pH 4.5 for various times. Carbonic anhydrase 11 (5 mg/ml) was injected at 1:10 dilution in 10 mM sodium acetate pH 4.5 for 20 minutes. G74C GGBP (2.6 mg/ml) was injected at 1:50 dilution in 10 mM sodium acetate pH 4.5 for 12 minutes. A213C GGBP (0.6 mg/ml) was injected at 1:20 dilution in 10 mM sodium acetate pH 4.5 for 2 4 minutes. A 4 minute pulse of 50 mM cysteine, 1 M NaCl, 0.1 M sodium formate pH 4.3 was used to quench the reaction and remove non-specifically bound protein from the surface. Following immobilization, the protocol DESORB (0.5% SDS, 50 mM glycine pH 9.5) was run to remove protein aggregates from the system. Surfaces of 3000 RU (E149C GGBP), 4500 RU (carbonic anydrase), 2000 RU (A213C GGBP), and 4000 RU (G74C GGBP) were used for experiments.
# Proteins were immobilized onto a Carboxymethyldextran (CM5) sensor surface (BIAcore) by amine coupling using standard amine coupling chemistry with a flow rate of 5 μl/min in HBS-P running buffer. The surface was activated with a 7 minute pulse of EDC/NHS. Proteins (WT GGBP, 2 mg/ml; E149C GGBP, 1.8 mg/ml) were injected at a 1:50 dilution in 10 mM sodium acetate pH 4.5 for 20 minutes. A pulse of 1 M ethanolamine pH 8.0 was injected to quench the reaction and remove nonspecifically bound protein. Surfaces of 4800 RU for E149C and 2400 RU for wild type GGBP were used for experiments.
# Thiol coupling of E149C GGBP on C1 surfaces was carried out as follows. E149C GGBP was immobilized on a carboxymethyl (C1) chip using standard thiol coupling chemistry with a flow rate of 5 μl/min in HBS-P running buffer. The C1 surface was activated with a 4 min pulse of EDC/NHS followed by a 4 min pulse of 80 mM PDEA of 0.1 M sodium borate pH 8.5. E149C GGBP (1.8 mg/ml) was injected at a 1:2 dilution in 10 mM sodium acetate pH 4.5 for 50 minutes at a flow rate of 1 μl/min. A 7 minute pulse of 50 mM cysteine, 1M NaCl, 0.1 M sodium formate pH 4.3 was used to quench the reaction and remove non-specifically bound protein from the surface. A surface of 9000 RU was used for experiments.
# Amine coupling of E149C GGBP on C1 surfaces. E149C GGBP was immobilized on a C1 chip using standard amine coupling chemistry with a flow rate of 5 μl/min in HBS-P running buffer. The surface was activated with a 7 minute pulse of EDC/NHS. E149C GGBP (1.8 mg/ml) was injected at a 1:2 dilution in 1 0 MM sodium acetate pH 4.5 for 50 minutes at a flow rate of 1 μl/min. A pulse of 1 M ethanolamine pH 8.0 was injected to quench the reaction and remove nonspecifically bound protein.
# All glucose injections were performed at 25° C. in the appropriate running buffer for the specific experiment. Glucose injections were 10 μl at a flow rate of 10 μl/min (1 minute contact time). Injections of different glucose concentrations were repeated three times and alternated between the protein and blank surfaces. The protein surface was regenerated by washing of the flow channel with running buffer followed by a running buffer injection. Sensorgrams were either blank surface subtracted or were double referenced by first subtracting the glucose injection over a blank surface from the corresponding glucose injection on the protein surface. A buffer injection over the blank surface was then subtracted from a buffer injection over the protein surface. The final sensorgram was obtained by subtracting the normalized buffer injection from the normalized glucose injection. […]
# [2] = SPR response of thiol coupled E149C GGBP to a panel of sugars; assay type: binding; conditions: sugars at 100 μM, 3000 RU thiol-coupled surface
# Procedure: All glucose injections were performed at 25° C. in the appropriate running buffer for the specific experiment. Glucose injections were 10 μl at a flow rate of 10 μl/min (1 minute contact time). Injections of different glucose concentrations were repeated three times and alternated between the protein and blank surfaces. The protein surface was regenerated by washing of the flow channel with running buffer followed by a running buffer injection. Sensorgrams were either blank surface subtracted or were double referenced by first subtracting the glucose injection over a blank surface from the corresponding glucose injection on the protein surface. A buffer injection over the blank surface was then subtracted from a buffer injection over the protein surface. The final sensorgram was obtained by subtracting the normalized buffer injection from the normalized glucose injection.
# FIG. 2 depicts the specificity of E149C mutated GGBP to bind glucose preferentially. The indicated sugars were injected at a concentration of 100 μM on a 3000 RU thiol-coupled E149C surface. Double referenced sensorgrams were averaged during the time frame corresponding between 10 and 50 seconds during the injection. Each injection was done in triplicate.
# [3] = amine coupling, CM5 chip, 100 μM glucose
# [4] = thiol coupling, CM5 chip, 100 μM glucose, blank subtracted or double referenced
substance,measurement,setting,value
"A213C GGBP H6: GGBP with cysteine substituted for alanine at position 213, histidine tag",glucose detection by SPR using thiol-coupled mutants (FIG. 8),[1],signal-enhanced glucose detection
same,"SPR Signal, Buffer","[1]; thiol coupling, CM5 chip",−0.5 ± 0.4 RU
same,SPR Signal at Saturating Amounts of Glucose,"[1]; thiol coupling, CM5 chip, 1 mM glucose",119 ± 0.4/ RU
"E149C GGBP H6: E. coli GGBP with cysteine substituted for glutamic acid at position 149, C-terminal six-histidine tag",glucose detection on C1 surface (FIG. 7),"[1]; 100 μM glucose, 2000 RU amine-coupled surface",does not result in glucose binding
same,glucose detection on C1 surface (FIG. 6),"[1]; 100 μM glucose, 9000 RU thiol-coupled protein surface",Glucose detection is evident
same,"signal upon glucose binding, thiol-coupling in comparison to amino coupling or buffer only (FIG. 1)","[1]; 100 µM glucose, one minute injection",significantly enhanced signal
same,SPR Signal at Saturating Amounts of Glucose,"[1]; amine coupling, C1 chip, 1 mM glucose",−4.9 ± 5.3/ RU
same,SPR Signal at Saturating Amounts of Glucose,[1]; [3],2.1 ± 5.5/ RU
same,"SPR Signal, Buffer","[1]; amine coupling, C1 chip",0.4 ± 3.1 RU
same,"SPR Signal, Buffer","[1]; amine coupling, CM5 chip",1.4 ± 3.1 RU
same,"SPR Signal, Buffer","[1]; thiol coupling, C1 chip",0.8 ± 1.5 RU
same,"SPR Signal, Buffer","[1]; thiol coupling, CM5 chip",−0.5 ± 4.3 RU
same,"SPR Signal, Buffer","[1]; thiol coupling, CM5 chip, denatured surface (neg control)",−1.4 ± 2.2 RU
same,"SPR Signal, Buffer","[1]; thiol coupling, CM5 chip, refolded protein surface",−3.7 ± 1.5 RU
same,SPR Signal at Saturating Amounts of Glucose,"[1]; thiol coupling, C1 chip, 100 μM glucose",10.2 ± 2.8/ RU
same,SPR Signal at Saturating Amounts of Glucose,[1]; [4],17.7 ± 0.5/ RU
same,SPR Signal at Saturating Amounts of Glucose,"[1]; thiol coupling, CM5 chip, denatured surface (neg control), 100 μM glucose",0 ± 4.1/ RU
same,SPR Signal at Saturating Amounts of Glucose,"[1]; thiol coupling, CM5 chip, refolded protein surface, 100 μM glucose",11.4 ± 1.0/ RU
same,glucose signal after denaturation (FIG. 3),"[1]; thiol-coupled surface, 1 M guanidine HCl overnight, HBS-EP injections",did not result in glucose signals
same,glucose signal after renaturation (FIG. 3),"[1]; thiol-coupled surface, HBS-P and 1.5 mM CaCl2, continuous flow overnight",Glucose signals were restored
same,specificity to bind glucose preferentially over other sugars (FIG. 2),[2],glucose binds more readily
"G74C GGBP H6: GGBP with cysteine substituted for glycine at position 74, histidine tag",glucose detection by SPR using thiol-coupled mutants (FIG. 8),[1],signal-enhanced glucose detection
same,"SPR Signal, Buffer","[1]; thiol coupling, CM5 chip",2.7 ± 3.6 RU
same,SPR Signal at Saturating Amounts of Glucose,[1]; [4],22.3 ± 0.2/ RU
"K137C GGBP H6: GGBP with cysteine substituted for lysine at position 137, histidine tag","SPR Signal, Buffer","[1]; thiol coupling, CM5 chip",4.8 ± 3.2 RU
same,SPR Signal at Saturating Amounts of Glucose,[1]; [4],9.5 ± 4.2/ RU
"WT GGBP H6: wild type E. coli Galactose/Glucose Binding Protein with histidine tag, non-thiol negative control [reference compound]",SPR Signal at Saturating Amounts of Glucose,[1]; [3],5.9 ± 2.3/ RU
same,"SPR Signal, Buffer","[1]; amine coupling, CM5 chip",2.9 ± 1.5 RU
